This assay relates to Influenza B virus. Nature of the assay: microbe, parasite or virus in culture. Conditions: B/Harbin/07/94, MDCK, 72 h.
Description: Antiviral activity against Influenza B virus (B/Harbin/07/94) infected in MDCK cells assessed as reduction of virus-induced cytopathic effect after 72 hrs by MTT assay
A word on the EC50: it is the concentration at which the effect is half-maximal. A high value points to lower potency in that assay. Take `CC(=O)N[C@H]1[C@H]([C@H](OC(=O)NCCCCCCCn2cc(CCCCNC(=O)O[C@@H]([C@@H]3OC(C(=O)O)=C[C@H](NC(=N)N)[C@H]3NC(C)=O)[C@H](O)CO)nn2)[C@H](O)CO)OC(C(=O)O)=C[C@@H]1NC(=N)N`: the half-maximal effective concentration (EC50) came out at 0.32 nM. For `CC(=O)N[C@H]1[C@H]([C@H](OC(=O)NCCCCCCCCc2cn(CCCCCCCNC(=O)O[C@@H]([C@@H]3OC(C(=O)O)=C[C@H](NC(=N)N)[C@H]3NC(C)=O)[C@H](O)CO)nn2)[C@H](O)CO)OC(C(=O)O)=C[C@@H]1NC(=N)N`, the EC50 was 0.39 nM. Regarding `CC(=O)N[C@H]1[C@H]([C@H](OC(=O)NCCCn2cc(CCCc3cn(CCCNC(=O)O[C@@H]([C@@H]4OC(C(=O)O)=C[C@H](NC(=N)N)[C@H]4NC(C)=O)[C@H](O)CO)nn3)nn2)[C@H](O)CO)OC(C(=O)O)=C[C@@H]1NC(=N)N`, the EC50 worked out at 0.65 nM.

`CC(=O)N[C@H]1[C@H]([C@H](OC(=O)NCCCCCn2cc(CCCCCc3cn(CCCCCNC(=O)O[C@@H]([C@@H]4OC(C(=O)O)=C[C@H](NC(=N)N)[C@H]4NC(C)=O)[C@H](O)CO)nn3)nn2)[C@H](O)CO)OC(C(=O)O)=C[C@@H]1NC(=N)N`: the EC50 came to 0.88 nM. `CC(=O)N[C@H]1[C@H]([C@H](OC(=O)NCCCn2cc(CCNC(=O)O[C@@H]([C@@H]3OC(C(=O)O)=C[C@H](NC(=N)N)[C@H]3NC(C)=O)[C@H](O)CO)nn2)[C@H](O)CO)OC(C(=O)O)=C[C@@H]1NC(=N)N`: it took 0.51 nM to reach a half-maximal effect (EC50). The compound `CC(=O)N[C@H]1[C@H]([C@H](OC(=O)NCCCCc2cn(CCCNC(=O)O[C@@H]([C@@H]3OC(C(=O)O)=C[C@H](NC(=N)N)[C@H]3NC(C)=O)[C@H](O)CO)nn2)[C@H](O)CO)OC(C(=O)O)=C[C@@H]1NC(=N)N` gave an EC50 of 0.43 nM. Next, `CC(=O)N[C@H]1[C@H]([C@H](OC(=O)NCCCCCn2cc(CCCCNC(=O)O[C@@H]([C@@H]3OC(C(=O)O)=C[C@H](NC(=N)N)[C@H]3NC(C)=O)[C@H](O)CO)nn2)[C@H](O)CO)OC(C(=O)O)=C[C@@H]1NC(=N)N`: 0.79 nM; `CCOC(=O)C1=C[C@@H](OC(CC)CC)[C@H](NC(C)=O)[C@@H](N)C1` [OSELTAMIVIR]: 583 nM; `CC(=O)N[C@H]1[C@H]([C@H](O)[C@H](O)CO)OC(C(=O)O)=C[C@@H]1NC(=N)N` [ZANAMIVIR]: 149 nM.

The values above are taken from ChEMBL document CHEMBL3217741, “Synthesis of 1,4-triazole linked zanamivir dimers as highly potent inhibitors of influenza A and B” (Medchemcomm, 2013).
